Values belong to the compound of their own block, whether it stands above or below them.
Columns and labels:
[1] = biological target: Calcium/calmodulin-dependent protein kinase kinase 1 (Homo sapiens) (UniProt Q8N5S9); experiment: Inhibition of human recombinant CaMKK1 at 500 nM in presence of ATP by radiometric assay relative to control
[2] = biological target: Dual specificity protein kinase CLK4 (Homo sapiens) (UniProt Q9HAZ1); experiment: Inhibition of human recombinant CLK4 at 500 nM in presence of ATP by radiometric assay relative to control
Dual specificity protein kinase CLK4 (Homo sapiens), sequence (Q9HAZ1 whole entry, looked up): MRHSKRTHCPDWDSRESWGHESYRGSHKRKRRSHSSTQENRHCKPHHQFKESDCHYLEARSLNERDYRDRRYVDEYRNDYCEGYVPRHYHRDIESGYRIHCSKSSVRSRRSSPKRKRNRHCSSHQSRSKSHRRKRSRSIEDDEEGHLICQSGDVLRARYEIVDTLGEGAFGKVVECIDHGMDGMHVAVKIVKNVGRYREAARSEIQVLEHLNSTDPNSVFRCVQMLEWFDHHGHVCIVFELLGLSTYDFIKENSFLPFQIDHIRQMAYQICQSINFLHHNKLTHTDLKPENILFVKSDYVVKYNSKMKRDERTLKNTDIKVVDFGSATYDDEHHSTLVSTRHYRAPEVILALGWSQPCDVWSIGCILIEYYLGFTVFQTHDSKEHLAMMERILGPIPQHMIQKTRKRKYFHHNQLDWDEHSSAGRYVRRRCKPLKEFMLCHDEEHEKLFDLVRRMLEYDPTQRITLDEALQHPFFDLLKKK

[3] = biological target: T1, Testis-specific serine/threonine-protein kinase 4 (Homo sapiens) (UniProt Q6SA08); experiment: Inhibition of human recombinant TSSK4 at 500 nM in presence of ATP by radiometric assay relative to control
T1 sequence (whole entry): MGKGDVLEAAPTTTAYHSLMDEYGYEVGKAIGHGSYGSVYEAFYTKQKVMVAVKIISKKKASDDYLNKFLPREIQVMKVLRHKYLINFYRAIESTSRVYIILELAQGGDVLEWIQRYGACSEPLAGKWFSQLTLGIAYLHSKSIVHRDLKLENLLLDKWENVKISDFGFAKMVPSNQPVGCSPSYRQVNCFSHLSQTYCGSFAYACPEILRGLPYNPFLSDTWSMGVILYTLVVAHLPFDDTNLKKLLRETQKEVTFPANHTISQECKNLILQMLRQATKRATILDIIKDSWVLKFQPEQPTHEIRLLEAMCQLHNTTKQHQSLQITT

[4] = biological target: Ephrin type-A receptor 2 (Homo sapiens) (UniProt P29317); experiment: Inhibition of human recombinant EphA2 at 500 nM related to control ULK1
[5] = biological target: T2, Serine/threonine-protein kinase ICK (Homo sapiens) (UniProt Q9UPZ9); experiment: Inhibition of human recombinant ICK at 15 nM in presence of ATP by radiometric assay relative to control
T2 sequence (whole entry): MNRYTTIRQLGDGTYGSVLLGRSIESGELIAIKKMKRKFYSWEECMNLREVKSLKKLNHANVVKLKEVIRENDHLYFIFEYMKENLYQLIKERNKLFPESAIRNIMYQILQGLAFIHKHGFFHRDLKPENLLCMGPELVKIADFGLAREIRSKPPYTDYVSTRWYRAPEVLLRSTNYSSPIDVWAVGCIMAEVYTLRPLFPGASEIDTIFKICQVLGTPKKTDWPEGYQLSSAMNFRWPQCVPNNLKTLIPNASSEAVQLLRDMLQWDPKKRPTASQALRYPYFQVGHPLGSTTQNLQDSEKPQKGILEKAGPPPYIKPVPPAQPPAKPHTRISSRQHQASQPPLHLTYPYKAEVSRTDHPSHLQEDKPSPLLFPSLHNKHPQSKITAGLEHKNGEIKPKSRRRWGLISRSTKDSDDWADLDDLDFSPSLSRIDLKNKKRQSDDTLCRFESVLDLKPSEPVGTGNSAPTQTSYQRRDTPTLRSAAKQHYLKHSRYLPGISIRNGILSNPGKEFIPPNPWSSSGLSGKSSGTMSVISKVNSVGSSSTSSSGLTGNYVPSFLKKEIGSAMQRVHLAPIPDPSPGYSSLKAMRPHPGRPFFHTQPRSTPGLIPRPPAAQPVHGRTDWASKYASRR

[6] = biological target: T3, Serine/threonine-protein kinase Sgk3 (Homo sapiens) (UniProt Q96BR1); experiment: Inhibition of human recombinant SGK3 at 15 nM in presence of ATP by radiometric assay relative to control
T3 sequence (whole entry): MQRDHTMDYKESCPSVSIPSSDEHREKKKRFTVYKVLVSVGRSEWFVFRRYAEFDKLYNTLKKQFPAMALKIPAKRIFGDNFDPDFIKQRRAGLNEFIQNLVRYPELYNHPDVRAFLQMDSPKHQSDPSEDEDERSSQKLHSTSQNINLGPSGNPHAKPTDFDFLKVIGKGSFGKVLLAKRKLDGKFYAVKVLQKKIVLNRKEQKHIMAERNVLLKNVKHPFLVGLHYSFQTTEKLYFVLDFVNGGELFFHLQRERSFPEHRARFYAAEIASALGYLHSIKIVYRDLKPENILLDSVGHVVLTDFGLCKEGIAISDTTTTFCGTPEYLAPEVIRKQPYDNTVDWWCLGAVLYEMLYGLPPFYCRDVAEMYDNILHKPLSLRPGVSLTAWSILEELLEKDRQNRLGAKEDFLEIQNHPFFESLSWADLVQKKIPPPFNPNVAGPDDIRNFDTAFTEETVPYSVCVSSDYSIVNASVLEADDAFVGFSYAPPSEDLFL

[7] = biological target: Serine/threonine-protein kinase WNK1 (Homo sapiens) (UniProt Q9H4A3); experiment: Inhibition of human recombinant Wnk1 at 15 nM in presence of ATP by radiometric assay relative to control
Serine/threonine-protein kinase WNK1 (Homo sapiens), sequence (Q9H4A3 whole entry, looked up): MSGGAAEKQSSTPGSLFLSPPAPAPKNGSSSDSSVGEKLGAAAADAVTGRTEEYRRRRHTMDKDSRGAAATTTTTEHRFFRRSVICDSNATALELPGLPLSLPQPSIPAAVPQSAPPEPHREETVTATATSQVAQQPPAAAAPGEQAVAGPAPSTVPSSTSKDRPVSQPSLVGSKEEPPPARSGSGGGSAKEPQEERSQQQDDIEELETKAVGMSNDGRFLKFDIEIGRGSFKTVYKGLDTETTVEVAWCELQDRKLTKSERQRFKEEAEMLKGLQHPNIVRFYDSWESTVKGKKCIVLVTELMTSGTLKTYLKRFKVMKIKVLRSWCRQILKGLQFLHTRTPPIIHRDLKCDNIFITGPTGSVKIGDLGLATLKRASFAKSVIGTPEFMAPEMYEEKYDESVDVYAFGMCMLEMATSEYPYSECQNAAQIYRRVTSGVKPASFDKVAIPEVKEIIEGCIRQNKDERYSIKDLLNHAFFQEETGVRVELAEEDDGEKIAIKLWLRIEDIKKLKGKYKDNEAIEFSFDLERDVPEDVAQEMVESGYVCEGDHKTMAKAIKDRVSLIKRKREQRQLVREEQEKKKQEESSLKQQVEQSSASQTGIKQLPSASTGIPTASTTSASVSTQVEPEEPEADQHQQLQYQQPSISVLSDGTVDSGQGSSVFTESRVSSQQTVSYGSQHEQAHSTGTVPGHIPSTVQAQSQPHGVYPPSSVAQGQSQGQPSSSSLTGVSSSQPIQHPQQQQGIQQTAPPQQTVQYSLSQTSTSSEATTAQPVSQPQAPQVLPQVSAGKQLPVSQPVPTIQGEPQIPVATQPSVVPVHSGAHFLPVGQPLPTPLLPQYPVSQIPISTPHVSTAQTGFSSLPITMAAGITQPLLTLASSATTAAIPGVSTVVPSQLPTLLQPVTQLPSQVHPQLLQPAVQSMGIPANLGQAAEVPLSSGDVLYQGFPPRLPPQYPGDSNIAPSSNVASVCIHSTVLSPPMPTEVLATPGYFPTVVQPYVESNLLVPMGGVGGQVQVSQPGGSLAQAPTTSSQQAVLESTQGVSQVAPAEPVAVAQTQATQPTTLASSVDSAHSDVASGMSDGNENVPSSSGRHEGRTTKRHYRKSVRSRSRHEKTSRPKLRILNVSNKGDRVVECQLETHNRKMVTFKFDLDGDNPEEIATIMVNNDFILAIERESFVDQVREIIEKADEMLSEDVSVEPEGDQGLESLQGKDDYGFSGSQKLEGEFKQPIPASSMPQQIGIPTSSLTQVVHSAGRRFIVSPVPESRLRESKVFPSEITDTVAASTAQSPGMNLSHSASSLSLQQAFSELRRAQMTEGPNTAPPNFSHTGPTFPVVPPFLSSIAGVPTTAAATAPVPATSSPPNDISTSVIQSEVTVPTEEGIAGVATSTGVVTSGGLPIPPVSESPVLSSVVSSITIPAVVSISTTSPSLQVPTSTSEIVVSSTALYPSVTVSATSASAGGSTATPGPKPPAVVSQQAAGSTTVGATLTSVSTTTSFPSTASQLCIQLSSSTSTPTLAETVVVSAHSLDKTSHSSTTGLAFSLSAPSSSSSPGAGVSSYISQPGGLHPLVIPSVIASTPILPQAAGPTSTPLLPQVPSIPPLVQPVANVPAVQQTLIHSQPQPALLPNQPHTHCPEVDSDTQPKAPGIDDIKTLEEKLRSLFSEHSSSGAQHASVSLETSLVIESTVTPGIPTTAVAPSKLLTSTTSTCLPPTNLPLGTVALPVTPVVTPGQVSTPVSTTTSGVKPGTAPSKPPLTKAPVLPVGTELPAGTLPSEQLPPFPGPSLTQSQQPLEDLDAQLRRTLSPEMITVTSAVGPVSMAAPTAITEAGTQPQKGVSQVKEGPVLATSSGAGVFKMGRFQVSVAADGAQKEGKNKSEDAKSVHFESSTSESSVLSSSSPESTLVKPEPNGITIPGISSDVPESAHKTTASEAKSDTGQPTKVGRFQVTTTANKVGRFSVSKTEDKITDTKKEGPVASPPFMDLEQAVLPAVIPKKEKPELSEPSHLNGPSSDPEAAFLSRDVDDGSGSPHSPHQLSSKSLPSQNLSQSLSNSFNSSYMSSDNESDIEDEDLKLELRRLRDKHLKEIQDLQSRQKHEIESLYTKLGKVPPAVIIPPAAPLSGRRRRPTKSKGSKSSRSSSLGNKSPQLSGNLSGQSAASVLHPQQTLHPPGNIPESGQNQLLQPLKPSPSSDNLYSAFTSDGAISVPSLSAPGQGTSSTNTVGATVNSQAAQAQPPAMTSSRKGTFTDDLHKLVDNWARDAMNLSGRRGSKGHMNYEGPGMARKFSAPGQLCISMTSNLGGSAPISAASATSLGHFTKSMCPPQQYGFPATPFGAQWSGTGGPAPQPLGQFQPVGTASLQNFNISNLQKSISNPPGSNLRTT

[8] = biological target: Activated CDC42 kinase 1 (Homo sapiens) (UniProt Q07912); experiment: Inhibition of human recombinant ACK at 15 nM related to control ULK1
Activated CDC42 kinase 1 (Homo sapiens), sequence (Q07912 whole entry, looked up): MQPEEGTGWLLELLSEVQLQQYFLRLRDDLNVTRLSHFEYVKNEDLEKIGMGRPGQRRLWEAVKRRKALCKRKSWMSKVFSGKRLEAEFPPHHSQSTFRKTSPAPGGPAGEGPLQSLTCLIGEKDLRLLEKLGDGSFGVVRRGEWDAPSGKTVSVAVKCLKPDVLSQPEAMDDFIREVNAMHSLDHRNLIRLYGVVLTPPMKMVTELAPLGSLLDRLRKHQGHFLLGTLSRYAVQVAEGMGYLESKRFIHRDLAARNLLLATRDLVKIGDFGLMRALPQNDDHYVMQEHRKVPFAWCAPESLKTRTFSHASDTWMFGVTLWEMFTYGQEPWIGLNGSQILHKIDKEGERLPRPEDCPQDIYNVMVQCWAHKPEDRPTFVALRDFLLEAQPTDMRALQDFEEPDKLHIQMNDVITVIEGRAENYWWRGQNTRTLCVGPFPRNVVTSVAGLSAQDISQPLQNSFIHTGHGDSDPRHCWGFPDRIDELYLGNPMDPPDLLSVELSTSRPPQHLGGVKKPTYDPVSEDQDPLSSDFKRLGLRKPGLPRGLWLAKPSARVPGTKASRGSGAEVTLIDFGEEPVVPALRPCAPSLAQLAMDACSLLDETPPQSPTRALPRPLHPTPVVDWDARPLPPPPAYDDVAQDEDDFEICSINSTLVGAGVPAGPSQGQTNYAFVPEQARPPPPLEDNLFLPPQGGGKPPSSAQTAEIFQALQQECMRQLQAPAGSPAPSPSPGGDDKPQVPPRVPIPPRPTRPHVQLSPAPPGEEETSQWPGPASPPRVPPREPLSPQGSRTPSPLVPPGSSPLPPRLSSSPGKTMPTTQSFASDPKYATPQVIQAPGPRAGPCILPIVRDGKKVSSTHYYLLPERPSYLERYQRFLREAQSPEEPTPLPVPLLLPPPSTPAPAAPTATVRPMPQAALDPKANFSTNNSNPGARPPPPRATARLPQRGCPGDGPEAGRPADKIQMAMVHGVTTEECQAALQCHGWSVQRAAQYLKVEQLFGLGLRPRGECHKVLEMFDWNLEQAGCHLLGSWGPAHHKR

[9] = biological target: Calcium/calmodulin-dependent protein kinase kinase 2 (Homo sapiens) (UniProt Q96RR4); experiment: Inhibition of human recombinant CaMKK2 at 15 nM related to control ULK1
[10] = biological target: T4, Interleukin-1 receptor-associated kinase 4 (Homo sapiens) (UniProt Q9NWZ3); experiment: Inhibition of human recombinant IRAK4 at 15 nM related to control ULK1
T4 sequence (whole entry): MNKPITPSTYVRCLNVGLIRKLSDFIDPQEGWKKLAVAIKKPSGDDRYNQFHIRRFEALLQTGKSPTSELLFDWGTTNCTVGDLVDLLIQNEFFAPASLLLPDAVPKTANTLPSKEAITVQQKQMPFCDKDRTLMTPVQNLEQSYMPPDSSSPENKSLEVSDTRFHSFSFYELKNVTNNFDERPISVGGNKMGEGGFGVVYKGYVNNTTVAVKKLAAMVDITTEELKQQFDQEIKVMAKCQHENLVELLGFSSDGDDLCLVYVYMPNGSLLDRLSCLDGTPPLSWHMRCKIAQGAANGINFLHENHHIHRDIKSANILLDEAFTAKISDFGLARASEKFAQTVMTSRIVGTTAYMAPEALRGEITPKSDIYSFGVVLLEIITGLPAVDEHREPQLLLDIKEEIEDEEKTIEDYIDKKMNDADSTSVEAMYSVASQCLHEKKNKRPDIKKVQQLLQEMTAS

[11] = biological target: Vascular endothelial growth factor receptor 2 (Homo sapiens) (UniProt P35968); experiment: Inhibition of human recombinant KDR at 15 nM related to control ULK1
[12] = biological target: Dual specificity protein kinase CLK3 (Homo sapiens) (UniProt P49761); experiment: Inhibition of human recombinant CLK3 at 40 nM in presence of ATP by radiometric assay relative to control
Dual specificity protein kinase CLK3 (Homo sapiens), sequence (P49761 whole entry, looked up): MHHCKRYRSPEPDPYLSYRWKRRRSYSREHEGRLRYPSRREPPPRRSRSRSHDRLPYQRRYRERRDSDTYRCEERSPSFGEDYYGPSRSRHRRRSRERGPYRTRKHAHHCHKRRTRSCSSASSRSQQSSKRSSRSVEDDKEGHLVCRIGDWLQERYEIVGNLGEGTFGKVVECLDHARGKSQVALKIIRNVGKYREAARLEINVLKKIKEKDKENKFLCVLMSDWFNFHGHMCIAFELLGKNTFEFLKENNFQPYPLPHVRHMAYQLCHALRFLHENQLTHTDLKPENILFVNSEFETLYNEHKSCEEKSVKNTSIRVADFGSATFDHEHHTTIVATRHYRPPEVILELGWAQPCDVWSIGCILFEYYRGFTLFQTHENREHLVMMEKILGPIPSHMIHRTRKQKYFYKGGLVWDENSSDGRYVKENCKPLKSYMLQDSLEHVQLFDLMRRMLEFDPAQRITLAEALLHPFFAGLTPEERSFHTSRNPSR

[13] = biological target: Mitogen-activated protein kinase kinase kinase 20 (Homo sapiens) (UniProt Q9NYL2); experiment: Inhibition of human recombinant ZAK at 40 nM in presence of ATP by radiometric assay relative to control

Calcium/calmodulin-dependent protein kinase kinase 1 (Homo sapiens), sequence (Q8N5S9 whole entry, looked up): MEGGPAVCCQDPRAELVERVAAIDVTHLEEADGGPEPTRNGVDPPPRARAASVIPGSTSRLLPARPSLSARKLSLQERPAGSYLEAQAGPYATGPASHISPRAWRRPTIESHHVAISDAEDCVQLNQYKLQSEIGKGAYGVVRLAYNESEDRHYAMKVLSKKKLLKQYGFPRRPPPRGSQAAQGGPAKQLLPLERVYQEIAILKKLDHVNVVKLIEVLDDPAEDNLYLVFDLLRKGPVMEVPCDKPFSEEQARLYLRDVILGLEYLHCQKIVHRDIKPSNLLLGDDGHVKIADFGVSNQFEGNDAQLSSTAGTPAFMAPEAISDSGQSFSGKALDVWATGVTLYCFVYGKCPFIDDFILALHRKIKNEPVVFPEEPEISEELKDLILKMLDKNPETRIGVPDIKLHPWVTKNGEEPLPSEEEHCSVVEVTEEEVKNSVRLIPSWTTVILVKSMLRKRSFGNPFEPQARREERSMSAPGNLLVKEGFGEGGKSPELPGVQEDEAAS

inhibition [1]: 8% | inhibition [2]: 8% | inhibition [3]: 0% | fold change (FC) [4]: 0.03
SMILES: CNC(=O)c1ccccc1Oc1nc(Nc2cc(OC)c(OC)c(OC)c2)ncc1Br

inhibition [5]: 0% | inhibition [6]: 4% | inhibition [7]: 4% | fold change (FC) [8]: 0 | fold change (FC) [9]: 0.01 | fold change (FC) [10]: 0 | fold change (FC) [11]: 0.23
SMILES: CC(C)[C@H](NC(=O)c1cc(-c2cnn3cc(-c4ccc(OCCN5CCCCC5)cc4)cnc23)cs1)C(F)(F)F

inhibition [12]: 0% | inhibition [13]: 0%
SMILES: O=C(N[C@@H](C1CC1)C(F)(F)F)c1cc(-c2cnn3cc(-c4ccc(F)cc4)cnc23)cs1
